Earlier results as cited in article PMC10104807, “Modulation of tau tubulin kinases (TTBK1 and TTBK2) impacts ciliogenesis” (Scientific Reports, 2023).

Experiments:
[1] = system: 403 wild-type (WT) human kinases; parameters: method as in PMID 33944571; details: 1 μM; cited from earlier work
[2] = system: tau phosphorylation; details: cited from earlier work
[3] = parameters: method as in PMID 34978799; details: cited from earlier work

CC[C@](C)(O)C#Cc1cc2c(cn1)cnn2-c1ccnc(N)n1 [BGN18]
number of kinases bound with PoC < 10 in DiscoverX scanMAX panel [1]: sixteen

CC[C@](C)(O)C#Cc1cc2c(ccn2-c2cc(OC)nc(N)n2)cn1 [BGN31]
number of kinases bound with PoC < 10 in DiscoverX scanMAX panel [1]: eight | tau phosphorylation at multiple disease-relevant sites in vivo [2]: significantly lowered

Clc1ccc(-c2ccc(Nc3ncnc4[nH]ccc34)cc2)cc1 [compound 29]
brain penetration [3]: good brain penetration
